We go through 13 compounds from US9751869B2, “LXR modulators” (BRISTOL-MYERS SQUIBB COMPANY, priority 2013, dated 2017).

This assay has as its target T1, LXRβ (Homo sapiens, UniProt P55055).
T1 construct: Co-transfection expression plasmids, comprising full-length LXRα (pCMX-h LXRα or LXRβ (pCMX-hLXRβ)); expressed in transfected cells; host or cells: CV-1 African green monkey kidney cells, transient transfection with pCMX-hLXRβ
T1 sequence (P55055 1-460): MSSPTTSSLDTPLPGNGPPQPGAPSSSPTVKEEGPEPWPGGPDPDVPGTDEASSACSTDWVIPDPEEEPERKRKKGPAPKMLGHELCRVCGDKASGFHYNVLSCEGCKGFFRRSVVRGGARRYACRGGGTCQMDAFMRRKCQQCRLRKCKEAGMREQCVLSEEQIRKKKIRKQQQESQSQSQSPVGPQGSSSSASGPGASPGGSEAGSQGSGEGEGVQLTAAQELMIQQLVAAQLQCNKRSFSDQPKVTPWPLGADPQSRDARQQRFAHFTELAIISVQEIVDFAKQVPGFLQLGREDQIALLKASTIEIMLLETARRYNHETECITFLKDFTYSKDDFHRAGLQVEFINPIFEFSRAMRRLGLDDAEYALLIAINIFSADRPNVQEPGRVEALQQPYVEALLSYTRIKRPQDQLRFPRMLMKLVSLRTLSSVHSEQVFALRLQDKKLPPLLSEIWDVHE
T1 sequence (P19793 1-462 partner): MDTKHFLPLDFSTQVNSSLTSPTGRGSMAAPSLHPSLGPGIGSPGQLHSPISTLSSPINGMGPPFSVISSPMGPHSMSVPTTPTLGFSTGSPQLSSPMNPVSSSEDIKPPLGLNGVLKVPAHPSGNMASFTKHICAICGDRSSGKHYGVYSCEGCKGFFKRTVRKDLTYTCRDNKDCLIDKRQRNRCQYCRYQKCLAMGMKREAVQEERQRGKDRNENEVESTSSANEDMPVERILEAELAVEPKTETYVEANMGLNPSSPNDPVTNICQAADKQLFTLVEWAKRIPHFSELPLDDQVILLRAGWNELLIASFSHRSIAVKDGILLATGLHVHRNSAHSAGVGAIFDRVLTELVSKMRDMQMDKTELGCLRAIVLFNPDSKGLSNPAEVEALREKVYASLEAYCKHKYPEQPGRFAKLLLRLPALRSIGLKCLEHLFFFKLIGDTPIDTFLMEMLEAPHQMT
The experiment in a line: LXR/LXRE co-transfection assay (luciferase reporter) in CV-1 cells, LXRβ. It counts as cell-based. Conditions: for pEC50: CV-1 cells transfected with pCMX-hLXRβ and LXREx1-Tk-Luciferase, 20 hours incubation, read-out: LXRbeta agonism EC50; for Emax: CV-1 cells, relative to maximum response of high control N-(3-((4-fluorophenyl)-(naphthalene-2-sulfonyl)amino)propyl)-2,2-dimethylpropionamide, read-out: LXRbeta % EFFICACY
The essentials:
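Luciferase read-out after 20 h compound treatment at 37 °C of CV-1 cells carrying transfected hLXRβ plus one-copy LXRE reporter, endogenous RXR partnering. Sigmoidal fit of 10-point half-log curves (4 wells each) gave EC50; % efficacy versus maximal response of the propionamide reference agonist.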

pEC50: −log10 of the molar value.

In the case of `CNC(=O)C(F)(F)c1cc(-c2ccc(-c3cc(F)c(CO)c(S(C)(=O)=O)c3)cc2-c2oc(C)nc2-c2ccc(OC(F)F)c(F)c2)n(C)n1` [Example 78, 2-(5-(3-(4-(4-(difluoromethoxy)-3-fluorophenyl)-2-methyloxazol-5-yl)-3′-fluoro-4′-(hydroxymethyl)-5′-(methylsulfonyl)biphenyl-4-yl)-1-methyl-1H-pyrazol-3-yl)-2,2-difluoro-N-methylacetamide], the pEC50 is 7.14 and the Emax came out at 79%.

For `Cc1nc(-c2ccc(OC(F)F)c(F)c2)c(-c2cc(-c3cc(F)c(CO)c(S(C)(=O)=O)c3)ccc2-c2cc(C(F)(F)C(=O)N(C)C)nn2C)o1` [Example 79, 2-(5-(3-(4-(4-(difluoromethoxy)-3-fluorophenyl)-2-methyloxazol-5-yl)-3′-fluoro-4′-(hydroxymethyl)-5′-(methylsulfonyl)biphenyl-4-yl)-1-methyl-1H-pyrazol-3-yl)-2,2-difluoro-N,N-dimethylacetamide], the pEC50 is 7.77 and the Emax worked out at 87%.

Turning to `Cc1nc(-c2ccc3c(c2)OC(F)(F)O3)c(-c2cc(-c3cc(F)c(CO)c(S(C)(=O)=O)c3)ccc2-c2cc(C(F)(F)C(=O)N(C)C)nn2C)o1` [Example 80, 2-(5-(3-(4-(2,2-difluorobenzo[d][1,3]dioxol-5-yl)-2-methyloxazol-5-yl)-3′-fluoro-4′-(hydroxymethyl)-5′-(methylsulfonyl)biphenyl-4-yl)-1-methyl-1H-pyrazol-3-yl)-2,2-difluoro-N,N-dimethylacetamide], the pEC50 was 6.88 and the Emax was found to be 58%.

For the compound `Cc1nc(-c2ccc3c(c2)OC(F)(F)O3)c(-c2cc(-c3cc(F)c(CO)c(S(C)(=O)=O)c3)ccc2-c2cc(C(F)(F)C(=O)N3CCOCC3)nn2C)o1` [Example 81, 2-(5-(3-(4-(2,2-difluorobenzo[d][1,3]dioxol-5-yl)-2-methyloxazol-5-yl)-3′-fluoro-4′-(hydroxymethyl)-5′-(methylsulfonyl)biphenyl-4-yl)-1-methyl-1H-pyrazol-3-yl)-2,2-difluoro-1-morpholinoethanone], the pEC50 was 6.74 and the Emax came out at 43%.

As to `Cc1nc(-c2ccc3c(c2)OC(F)(F)O3)c(-c2cc(-c3cc(F)c(CO)c(S(C)(=O)=O)c3)ccc2-c2cc(C(F)(F)C(=O)NC(C)C)nn2C)o1` [Example 82, 2-(5-(3-(4-(2,2-difluorobenzo[d][1,3]dioxol-5-yl)-2-methyloxazol-5-yl)-3′-fluoro-4′-(hydroxymethyl)-5′-(methylsulfonyl)biphenyl-4-yl)-1-methyl-1H-pyrazol-3-yl)-2,2-difluoro-N-isopropylacetamide], the pEC50 is 7.23 and the Emax was determined as 33%.

As for `Cc1nc(-c2ccc3c(c2)OC(F)(F)O3)c(-c2cc(-c3cc(F)c(CO)c(S(C)(=O)=O)c3)ccc2-c2cc(C(F)(F)C(=O)N3CCCC3)nn2C)o1` [Example 83, 2-(5-(3-(4-(2,2-difluorobenzo[d][1,3]dioxol-5-yl)-2-methyloxazol-5-yl)-3′-fluoro-4′-(hydroxymethyl)-5′-(methylsulfonyl)-[1,1′-biphenyl]-4-yl)-1-methyl-1H-pyrazol-3-yl)-2,2-difluoro-1-(pyrrolidin-1-yl)ethanone], the pEC50 was 6.30 and the Emax was determined as 62%.

On to `Cc1nc(-c2ccc3c(c2)OC(F)(F)O3)c(-c2cc(-c3cc(F)c(CO)c(S(C)(=O)=O)c3)ccc2-c2cc(C(F)(F)C(=O)NC(C)(C)C)nn2C)o1` [Example 84, N-tert-butyl-2-(5-(3-(4-(2,2-difluorobenzo[d][1,3]dioxol-5-yl)-2-methyloxazol-5-yl)-3′-fluoro-4′-(hydroxymethyl)-5′-(methylsulfonyl)biphenyl-4-yl)-1-methyl-1H-pyrazol-3-yl)-2,2-difluoroacetamide], for which the pEC50 is 7.21 and the Emax turned out to be 26%.

In the case of `CNC(=O)C(F)(F)c1cc(-c2ccc(-c3cc(F)cc(S(C)(=O)=O)c3)cc2-c2oc(C)nc2-c2ccc3c(c2)OC(F)(F)O3)n(C)n1` [Example 85, 2-(5-(3-(4-(2,2-difluorobenzo[d][1,3]dioxol-5-yl)-2-methyloxazol-5-yl)-3′-fluoro-5′-(methylsulfonyl)biphenyl-4-yl)-1-methyl-1H-pyrazol-3-yl)-2,2-difluoro-N-methylacetamide], the pEC50 was 6.23 and the Emax came to 55%.

`Cc1nc(-c2ccc3c(c2)OC(F)(F)O3)c(-c2cc(-c3cc(F)c(CO)c(S(C)(=O)=O)c3)ccc2-c2cc(C(F)(F)C(=O)NCCO)nn2C)o1` [Example 86, 2-(5-(3-(4-(2,2-difluorobenzo[d][1,3]dioxol-5-yl)-2-methyloxazol-5-yl)-3′-fluoro-4′-(hydroxymethyl)-5′-(methylsulfonyl)biphenyl-4-yl)-1-methyl-1H-pyrazol-3-yl)-2,2-difluoro-N-(2-hydroxyethyl)acetamide]: the negative logarithm of the EC50 (pEC50) was 6.15 and the Emax came to 37%.

Consider `Cc1nc(-c2ccc3c(c2)OC(F)(F)O3)c(-c2cc(-c3cc(F)c(CO)c(S(C)(=O)=O)c3)ccc2-c2cc(C(F)(F)C(=O)NCC3CC3)nn2C)o1` [Example 87, N-(cyclopropylmethyl)-2-(5-(3-(4-(2,2-difluorobenzo[d][1,3]dioxol-5-yl)-2-methyloxazol-5-yl)-3′-fluoro-4′-(hydroxymethyl)-5′-(methylsulfonyl)biphenyl-4-yl)-1-methyl-1H-pyrazol-3-yl)-2,2-difluoroacetamide], for which the pEC50 was 6.87 and the Emax is 33%.

Take `Cc1nc(-c2ccc3c(c2)OC(F)(F)O3)c(-c2cc(-c3cc(F)c(CO)c(S(C)(=O)=O)c3)ccc2-c2cc(C(F)(F)C(=O)NC3CC3)nn2C)o1` [Example 88, N-cyclopropyl-2-(5-(3-(4-(2,2-difluorobenzo[d][1,3]dioxol-5-yl)-2-methyloxazol-5-yl)-3′-fluoro-4′-(hydroxymethyl)-5′-(methylsulfonyl)biphenyl-4-yl)-1-methyl-1H-pyrazol-3-yl)-2,2-difluoroacetamide]: the pEC50 is 7.07 and the Emax turned out to be 49%.

Consider `Cc1nc(-c2ccc3c(c2)OC(F)(F)O3)c(-c2cc(-c3cc(F)c(CO)c(S(C)(=O)=O)c3)ccc2-c2cc(C(F)(F)C(=O)NCC(N)=O)nn2C)o1` [Example 89, N-(2-amino-2-oxoethyl)-2-(5-(3-(4-(2,2-difluorobenzo[d][1,3]dioxol-5-yl)-2-methyloxazol-5-yl)-3′-fluoro-4′-(hydroxymethyl)-5′-(methylsulfonyl)biphenyl-4-yl)-1-methyl-1H-pyrazol-3-yl)-2,2-difluoroacetamide], for which the negative logarithm of the EC50 (pEC50) is 5.32 and the Emax was found to be 37%.

For `Cc1nc(-c2ccc3c(c2)OC(F)(F)O3)c(-c2cc(-c3cc(F)c(CO)c(S(C)(=O)=O)c3)ccc2-c2cc(C(F)(F)C(=O)NCC(F)(F)F)nn2C)o1` [Example 90, 2-(5-(3-(4-(2,2-difluorobenzo[d][1,3]dioxol-5-yl)-2-methyloxazol-5-yl)-3′-fluoro-4′-(hydroxymethyl)-5′-(methylsulfonyl)biphenyl-4-yl)-1-methyl-1H-pyrazol-3-yl)-2,2-difluoro-N-(2,2,2-trifluoroethyl)acetamide], the pEC50 was 7.24 and the Emax turned out to be 34%.
